Experimental data from patent US11414379B2, “SPAK kinase inhibitors as neuroprotective agents” (United States Government as represented by the Department …, priority 2018, dated 2022).

Columns and labels:
Format in all cases: cell-based, human
wild type KCC2 = assay: 86Rb+ uptake assay in HEK293 cells; settings: n=3
Procedure: (§1) HEK293 cells were plated at 50-60% confluence of in 12-well plates (2.4-cm-diameter per/well) and transfected with wild-type or various mutant forms of full-length flag-tagged human KCCs. Each well of HEK293 cells was transfected with 2.5 μL of 1 mg/mL polyethylenimine and 1 μg of plasmid DNA. The ^86Rb^+-uptake assay was performed on cells at 36 hours post-transfection. Culture medium was aspirated from the wells and replaced with either isotonic or hypotonic medium for 15 min at 37° C., then for a further 15 min with stimulating medium containing additional 1 mM ouabain and 0.1 mM bumetanide, to prevent ^86Rb^+ uptake via the NKCC1 cotransporter. This stimulating medium was then removed and replaced with isotonic medium plus inhibitors containing 2 μCi/mL ^86Rb^+ for 10 min at 37° C., following which cells were rapidly washed three times with the respective ice-cold non-radioactive medium. The cells were lysed in 300 μL of ice-cold lysis buffer and ^86Rb^+ uptake was quantitated by liquid scintillation counting (PerkinElmer).
(§2) Referring to FIG. 8, ^86Rb^+ uptake assays in the presence of ZT-1a is shown. […] 10 min ^86Rb^+ uptake values were quantified by scintillation counting, normalized per mg protein for each condition and plotted for both isotonic and hypotonic conditions. Statistical significance was determined at p<0.05 (both panels).

[1] = system: KCC2 double mutant Thr906A1a/Thr1007Ala; assay: 86Rb+ uptake assay in HEK293 cells; settings: n=3, p>0.05
Procedure: as §1, §2

[2] = system: KCCs sites-1/2 (KCC2 Thr906/1007 or KCC3 Thr991/1048) phosphorylation; assay: Phosphorylation immunoblot in HEK293 cells; settings: only at this concentration
Procedure: HEK293 (human embryonic kidney 293) cells were cultured on 10-cm-diameter dishes in DMEM supplemented with 10% (v/v) foetal bovine serum, 2 mM L-glutamine, 100 U/ml penicillin and 0.1 mg/ml streptomycin. HEK293 cells were transfected with a mixture of 20 μl of 1 mg/ml polyethylenimine (Polysciences) and 5-10 μg of plasmid DNA as described previously (Durocher et al., 2002). 36 hours post-transfection cells were stimulated with either control isotonic or hypotonic medium for a period of 30 minutes. Cells were lysed in 0.3 mL of ice-cold lysis buffer/dish, lysates were clarified by centrifugation at 4° C. for 15 minutes at 26,000 g and the supernatant aliquots were frozen in liquid nitrogen and stored at −20° C. Protein concentrations were determined using the Bradford method. Cells were treated with the indicated concentrations of the SPAK/OSR1 inhibitors. […]
The membranes were incubated for 30 min with TBST (Tris-buffered saline, 0.05% Tween-20) containing 5% (w/v) skim milk. […] After repeating the washing steps, signals were detected with enhanced chemiluminescence reagent. […] The densities of bands were measured with ImageJ. […]
HEK293 cells were transfected with a DNA construct encoding wild type N-terminally FLAG-tagged KCC2. […] See FIG. 3 for Western blot quantitation. […]

SMILES	activation of WT KCC2 (86Rb+ uptake) (wild type KCC2)	increase of activity of KCC2 double mutant (86Rb+ uptake) [1]	concentration at which phosphorylation of KCCs site-1 was significantly inhibited [2]
Cc1cc(C(C#N)c2ccc(Cl)cc2)c(Cl)cc1NC(=O)c1cc(Cl)ccc1O (stereo not drawn) [ZT-1a, 5-chloro-N-(5-chloro-4-((4-chlorophenyl)(cyano)methyl)-2-methylphenyl)-2-hydroxy-benzamide]	> 2.6 fold	7±2%	–
Cc1cc(C(C#N)c2ccc(Cl)cc2)c(Cl)cc1NC(=O)c1cc(I)cc(I)c1O (stereo not drawn) [Closantel]	–	–	10 µM
